Laboratory results reported in patent US20250257103A1, “Antimicrobial Proteins” (The Olive Feed Corporation Limited, priority 2024, published 2025).
Where no end group is shown, it is not given here.

How the values were obtained:
Assay in all cases: Candida growth inhibition, micro-broth dilution
Assay type in all cases: cell-based
Candida tropicalis = settings: estimate; for Hill-slope: dose-response curve
Procedure: (§1) The proteins were chemically synthesised by solid phase peptide synthesis at a purity of >90% by (GL Biochem Ltd. Shanghai, People's Republic of China). Post-synthesis, the proteins were stored lyophilised at −20° C. to maintain their integrity. The proteins were weighed and dissolved in ultrapure water as a stock solution prior to experimentation. For all assays a 1:1 dilution was made with double-strength broth, the composition of which was tailored to the specific requirements of the organism.
(§2) Antifungal activity was assessed by a micro-broth dilution method modified by Handcock for cationic peptides and proteins. Given the propensity of cationic peptides and proteins to bind polystyrene, 96-well polypropylene plates were used as an alternative. Candida species MIC analysis were performed using ½ strength potato dextrose broth (PDB).
(§3) 96-well flat-bottomed polypropylene plates were prepared 30 mins prior to inoculation. The outer wells of the plate were filled with 200 μl of diH2O to mitigate evaporation in test lanes during incubation with low volumes and for prolonged periods. Given the high cost of the synthetic proteins minimal volume of 100 μl was utilised, and preliminary testing was conducted in duplicate. 50 μl of ½ strength PDB was dispensed into all remaining wells except column 3. 100 μl was added to column 2 and acting as a ‘broth only’ sterile control. Subsequently, 100 μl of the top standard protein solution, prepared at a 2× concentration (500 μg/ml) and suspended in half-strength PDB, was added to column 3. Using a multichannel pipette, 50 μl from each well in column 3 (rows B through G) were mixed with an equal volume of broth in column 4. This procedure was repeated by serial diluting the protein down to column 10. The final […] was not transferred to lane 11 but was instead disposed of.
(§4) Candida species were grown over 48 hours on ½ strength potato dextrose agar (PDA) at a temperature of 35° C. Cells were harvested directly from the agar plates and resuspended in 2 ml of ½ PDB. The cell concentration was determined using a haemocytometer, and subsequently, cells were diluted to 1×10^5 cells/ml in ½ strength PDB, resulting in a concentration of 5,000 cells per well. 50 μl of the diluted cell suspension was added to the wells in columns 3-11, working backwards from the lowest protein concentration. This step ensured a total volume of 100 μl in each well, giving a final top standard protein concentration of 250 μg/ml in the assay. Column 11 was designated as the growth control, containing cells only.
(§5) Absorbance readings were taken at time zero (T=0) at a wavelength of 595 nm for the analysis of all Candida spp. Subsequently, all plates were incubated at 35° C. for 24 hrs. To ensure uniform resuspension of cells, a multichannel pipette was used to agitate the cell suspension. A second series of absorbance measurements at 595 nm was conducted at T=24, enabling a comprehensive assessment of growth over the 24-hour period).
(§6) The activities of synthetic plant-like defensin analogues Olv1 and Olv2 were assessed against Candida albicans sc5314 (Table 2, FIG. 5A), Candida parapsilosis (Table 3, FIG. 5B), Candida tropicalis (Table 4, FIG. 5C) and Candida krusei (Table 5, FIG. 5D).
(§7) Log IC50: The logarithm of the concentration at which 50% inhibition of growth is observed, Hill-slope: Describes the steepness of the curve; a steeper slope indicates a more cooperative binding to the target and a sharper transition between the non-effective and effective doses and IC50: The actual concentration at which 50% inhibition is achieved, derived from the Log IC50.

Candida parapsilosis = settings: estimate; for Hill-slope: dose-response curve; for IC50 / LogIC50: growth inhibition, 24 hrs, 35° C., ½ strength PDB
Procedure: as §1, §2, §3, §4, §5, §6, §7

Candida albicans 5314 = settings: estimate
Procedure: as §1, §2, §3, §4, §5, §6, §7

Candida krusei = test system: Candida krusei; set-up: LogIC50: unit not given here; settings: estimate; for Hill-slope: dose-response curve; for IC50 / LogIC50: growth inhibition, 24 hrs, 35° C., ½ strength PDB
Procedure: as §1, §2, §3, §4, §5, §6, §7

[1] = growth inhibition, 24 hrs, 35° C., ½ strength PDB
[2] = Candida albicans 5314, growth inhibition, 24 hrs, 35° C., ½ strength PDB

Row | Sequence | Hill-slope (Candida tropicalis) | LogIC50 (Candida tropicalis; [1]) | Hill-slope (Candida parapsilosis) | IC50 (Candida parapsilosis) [µg/mL] | LogIC50 (Candida parapsilosis) | IC50 (Candida albicans 5314; [2]) [µg/mL] | LogIC50 (Candida albicans 5314; [2]) | Hill-slope (Candida krusei) | IC50 (Candida krusei) [µg/mL] | LogIC50 (Candida krusei) | IC50 (Candida tropicalis; [1]) [µg/mL] | Hill-slope (Candida albicans 5314; Candida albicans 5314, dose-response curve)
1 | RTCESQSHRFKGSCVSKSNCAAVCQTEGFPDGYCRGFRRRCFCSKHC (cysteines drawn unpaired) [Olv1] | −9.410 | 1.602 log10(μg/ml) | −3.181 | 56.919 | 1.755 | 94.113 | 1.974 | −11.209 | 90.642 | 1.957 | – | –
2 | RVCSRLSKTWSGLCLNSGNCNRQCRNWEGALRGACHKRGWGFACFCYRKC (cysteines drawn unpaired) [Olv2] | −4.862 | 1.417 log10(μg/ml) | −3.474 | 54.233 | 1.734 | – | 1.866 | −10.527 | 40.346 | 1.606 | 26.098 | −11.59
